Measurements: ChEMBL document CHEMBL1151696 (Bioorg Med Chem, 2008)
Activity calls are given as the source filed them. The calls are words filed in the database; no cut-off is given here.

Tests used:
[1] = system: Human alphaherpesvirus 1; format: functional, organism-based
[2] = target: Glutamate NMDA receptor; test: Antagonist activity at NMDA receptor in cerebellar granule neurons assessed as inhibition of NMDA-induced increase in intracellular calcium concentration by fluorometric assay; format: functional, cell-based
[3] = system: Feline coronavirus; format: functional, organism-based
[4] = system: Mammalian orthoreovirus 1; format: functional, organism-based
[5] = system: Punta Toro virus; format: functional, organism-based
[6] = species: Rattus norvegicus; test: Inhibition of [3H]dopamine uptake in Wistar rat striatum synaptosomes at 100 uM by scintillation spectrometry; format: functional, subcellular; design: scale not given: the % may be the effect or the level left
[7] = system: Vesicular stomatitis virus; format: functional, organism-based
[8] = target: Glutamate NMDA receptor; test: Antagonist activity at NMDA receptor in cerebellar granule neurons assessed as inhibition of glutamate-induced increase in intracellular calcium concentration by fluorometric assay; format: functional, cell-based
[9] = system: Respiratory syncytial virus; format: functional, organism-based
[10] = system: Human alphaherpesvirus 2; format: functional, organism-based
[11] = system: Sindbis virus; format: functional, organism-based
[12] = system: Coxsackievirus B4; format: functional, organism-based
[13] = system: Human respirovirus 3; format: functional, organism-based

| Structure (SMILES) | Activity [1] | IC50 [2] | Activity [3] | Activity [4] | Activity [5] | Activity [6] | Activity [7] | IC50 [8] | Activity [9] | Activity [10] | Activity [11] | Activity [12] | Activity [13] |
| --- | --- | --- | --- | --- | --- | --- | --- | --- | --- | --- | --- | --- | --- |
| COc1ccc(CNC23CC4CC(CC2C4)C3)cc1 | inactive | > 200 µM | inactive | inactive | inactive | 63.9% | inactive | > 200 µM | inactive | inactive | inactive | inactive | inactive |
| CC12CC3CC1(C)CC3(CN1CCCCC1)C2 | inactive | > 200 µM | inactive | inactive | inactive | 39.8% | inactive | > 200 µM | inactive | inactive | inactive | inactive | inactive |
| CNC12CC3(C)CC1CC3(C)C2 | inactive | 35 µM | inactive | inactive | inactive | 74.6% | inactive |  | inactive | inactive | inactive | inactive | inactive |
| CC12CC3CC(C)(C1)CC(N)(C3)C2 |  |  |  |  |  | 53.7% |  |  |  |  |  |  |  |
| c1ccc(CNCC23CC4CC(CC2C4)C3)cc1 | inactive | 138 µM | inactive | inactive | inactive | 57.9% | inactive | > 500 µM | inactive | inactive | inactive | inactive | inactive |
| CN(Cc1ccccc1)C12CC3CC(CC1C3)C2 | inactive | 36 µM | inactive | inactive | inactive | 47.2% | inactive | > 500 µM | inactive | inactive | inactive | inactive | inactive |
| CN(C)CC12CC3CC(CC1C3)C2 | inactive | > 200 µM | inactive | inactive | inactive | 62.5% | inactive | > 200 µM | inactive | inactive | inactive | inactive | inactive |
| CC12CC3CC1(C)CC3(NCc1cccs1)C2 | inactive | 80 µM | inactive | inactive | inactive |  | inactive | 204 µM | inactive | inactive | inactive | inactive | inactive |
| COc1ccccc1CNC12CC3CC(CC1C3)C2 | inactive | 92 µM | inactive | inactive | inactive | 58.3% | inactive | > 500 µM | inactive | inactive | inactive | inactive | inactive |
| NC(N)=NCC12CC3CC(CC1C3)C2 |  | 25 µM |  |  |  |  |  | 453 µM |  |  |  |  |  |
| c1ccc(CNC23CC4CC(CC2C4)C3)cc1 | inactive | > 200 µM | inactive | inactive | inactive | 31.7% | inactive | > 200 µM | inactive | inactive | inactive | inactive | inactive |
| CN(Cc1ccccc1)C12CC3(C)CC1CC3(C)C2 | inactive | > 200 µM | inactive | inactive | inactive |  | inactive | > 200 µM | inactive | inactive | inactive | inactive | inactive |
| COc1cccc(CNC23CC4CC(CC2C4)C3)c1 | inactive | 87 µM | inactive | inactive | inactive | 45.8% | inactive | > 500 µM | inactive | inactive | inactive | inactive | inactive |
| CNCC12CC3CC(CC1C3)C2 | inactive | 71 µM | inactive | inactive | inactive | 76.3% | inactive | > 500 µM | inactive | inactive | inactive | inactive | inactive |
| CC12CC3CC1(C)CC3(CNC(=N)N)C2 | inactive | 7.1 µM | inactive | inactive | inactive |  | inactive | 104 µM | inactive | inactive | inactive | inactive | inactive |
| CN(C)CC12CC3(C)CC1CC3(C)C2 | inactive | > 200 µM | inactive | inactive | inactive |  | inactive | > 200 µM | inactive | inactive | inactive | inactive | inactive |
| CC12CC3CC1(C)CC3(NCc1ccccc1)C2 | inactive | 70 µM | inactive | inactive | inactive |  | inactive | 143 µM | inactive | inactive | inactive | inactive | inactive |
| N=C(N)NCC12CC3CC(CC1C3)C2 | inactive |  | inactive | inactive | inactive | 119% | inactive |  | inactive | inactive | inactive | inactive | inactive |
